Data: US9567371B2, “Short beta-defensin-derived peptides” (Yeda Research and Development Co. Ltd., priority 2009, dated 2017)
Peptide text beside a SMILES is read from it.

Experiments:
pre-B-ALL G2 cells = assay: Cell toxicity assay (propidium iodide exclusion, flow cytometry); assay type: cell-based, human; conditions: 6 and 24 h, FIG. 1
Description: FIG. 1. […] G2 cells (1×10^6/ml) were cultured in 96-well flat-bottom wells in serum free IMDEM culture medium supplemented with L-glutamine and antibiotics, for 6 and 24 h at 37° C. with the indicated peptides. Untreated cells served as a control. After treatment, cells were stained with propidium iodide (PI) and its exclusion was analyzed by flow cytometry. Data shown are the percentage of Pr (dead) cells. Vertical bars represent standard deviation of duplicate experiments. *P<0.05 compared to untreated control.
Pre-B-ALL G2 cells and freshly isolated primary human CD3^+ T cells (1×10^6/ml) were cultured in 96-well flat-bottom wells in serum free IMDM or RPMI 1640 medium, respectively, both supplemented with L-glutamine and antibiotics, for 6 and 24 hrs at 37° C. (95% humidity, 5% CO2) with 10 μM, 100 μM or 1 mM of the peptides. Untreated cells served as a control. Cell viability was determined by propidium iodide (PI) exclusion by flow cytometry as described (Goichberg, P., et al., 2006).
In order to test cytotoxicity of the peptides, human pre-B-ALL G2 cells and freshly isolated primary human CD3^+ T cells (1×10^6/ml) were cultured in with 10 μM, 100 μM or 1 mM of TL-1, AK-1 and cyclic TL-1, as described in the Material and Methods. All tested peptides were not toxic for G2 cells (FIG. 1) as well as for primary human T cells at 10 μM and 100 μM. Even in the highest concentration, 1 mM, the peptides killed only 8-12% and 14-16% cells treated for 6 and 24 hrs, respectively, indicating a very low cytotoxicity of the peptides.

MG-63 cells = assay: SDF-1, bFGF and HGF secretion by stromal cells (ELISA of supernatants); assay type: cell-based, human; conditions: 10 μM, compared with untreated cells
Description: (§1) FIGS. 7A-7F. Effect of TL-1, AK-1 and cyclic TL-1 on SDF-1, bFGF and HGF secretion by different stromal cell lines. MS-5, MBA-15 and MG-63 cells were co-cultured with 10 μM TL-1, AK-1 or cyclic TL-1 in the serum free medium for 6 hrs, or without added peptide (UT). Levels of SDF-1 (A-C), bFGF (D) and HGF (E, F) were detected in the collected supernatants by ELISA. Data shown are the mean±SD of 2 separate experiments. *P<0.05 compared to control.
SDF-1 levels in tested samples were determined by ELISA as described (Kalinkovich, A., et al., 2006) where the K15C monoclonal antibodies (mAb, INRA, Paris, France) recognizing the first three amino acids of SDF-1 were utilized as a capture Ab (10 μg/mL) in order to measure levels of intact, non-cleaved SDF-1. Levels of basic FGF (bFGF) and HGF in tested samples were determined by using corresponding capture mAbs and polyclonal biotynilated Abs (R&D Systems) as recommended by the manufacturer. In order to examine SDF-1, bFGF and HGF levels in cell supernatants, MS-5, MBA-15 and MG-63 cells were seeded in 24-well Costar wells and cultivated in RPMI 1640 or αMEM Eagle medium, respectively, with 10% FCS. […]
(§2) In order to examine the capability of the peptides to induce secretion of other proteins, the levels of Hepatocyte growth factor (HGF) and Basic fibroblast growth factor (bFGF) were detected in the same supernatants.

MS-5 cells = assay: as above; assay type: cell-based, mouse; conditions: 10 μM, compared with untreated cells
Description: as §1
(§3) SDF-1 levels in tested samples were determined by ELISA as described (Kalinkovich, A., et al., 2006) where the K15C monoclonal antibodies (mAb, INRA, Paris, France) recognizing the first three amino acids of SDF-1 were utilized as a capture Ab (10 μg/mL) in order to measure levels of intact, non-cleaved SDF-1. Levels of basic FGF (bFGF) and HGF in tested samples were determined by using corresponding capture mAbs and polyclonal biotynilated Abs (R&D Systems) as recommended by the manufacturer. In order to examine SDF-1, bFGF and HGF levels in cell supernatants, MS-5, MBA-15 and MG-63 cells were seeded in 24-well Costar wells and cultivated in RPMI 1640 or αMEM Eagle medium, respectively, with 10% FCS. When the cells reached confluence, the medium was changed to serum free medium and cells were cultivated for additional 6 hrs in the presence of various concentrations of the peptides. Medium samples were collected and centrifuged 10 min at 6000×g at 4° C. to remove cell debris. Supernatants were collected and kept at −70° C. until tested.
(§4) Because BM stromal cells, such as endosteal bone lining osteoblasts and endothelial cells are the main source of human and murine SDF-1, the capability of the peptides to affect SDF-1 secretion by mouse stromal MS-5 and MBA-15 cells, and human osteoblast MG-63 cells was examined.
as §2

MBA-15 cells = assay: as above; assay type: cell-based, mouse; conditions: 10 μM, compared with untreated cells
Description: as §1, §3, §4, §2

SDF-1 = SDF-1 plasma levels in injected mice (ELISA); assay type: in vivo, mouse; conditions: 5 mg/kg s.c., compared with mice injected with PBS
Description: as §3

Row | SMILES | cellular toxicity (percentage of PI+ dead cells) (pre-B-ALL G2 cells) | levels of SDF-1 in supernatants (MG-63 cells) | levels of SDF-1 in supernatants (MS-5 cells) | levels of SDF-1 in supernatants (MBA-15 cells) | SDF-1 plasma levels (SDF-1)
1 | N=C(N)NCCC[C@H](NC(=O)CNC(=O)[C@@H](N)CCCNC(=N)N)C(=O)N[C@@H](CCCCN)C(=O)N[C@@H](CS)C(=O)N[C@@H](CS)C(=O)N[C@@H](CCCNC(=N)N)C(=O)N[C@@H](CCCNC(=N)N)C(=O)N[C@@H](CCCCN)C(=O)N[C@@H](CCCCN)C(=O)O [TL-1, RGRKCCRRKK] (H-RGRKCCRRKK-OH) | Low cellular toxicity |  |  |  | 
2 | N=C(N)NCCC[C@H](NC(=O)CNC(=O)[C@@H](N)CO)C(=O)N[C@@H](CCCCN)C(=O)N[C@@H](CS)C(=O)N[C@@H](CS)C(=O)N[C@@H](CCCNC(=N)N)C(=O)N[C@@H](CCCCN)C(=O)N[C@@H](CCCCN)C(=O)N[C@@H](CCCCN)C(=O)O [AK-1, SGRKCCRKKK] (H-SGRKCCRKKK-OH) | Low cellular toxicity |  |  |  | 
3 | c1cc(CN2CCCNCCNCCCNCC2)ccc1CN1CCCNCCNCCCNCC1 [AMD3100, reference compound] |  | did not affect | did not affect | did not affect | significant elevation
